The values below come from patent publication US7141660B2, “Genes encoding a nystatin polyketide synthase and their manipulation and utility” (Sinvent AS, priority 2000, dated 2006).

For this assay, the system named is Candida albicans. The assay is described as follows: bioassay for antifungal activity against Candida albicans. The format is cell-based. To be noted: for Activity: Table 5, products of S. noursei nysC mutants, graded against nystatin of wild type (normal). Here is the method:
Preliminary analysis of the compounds produced by the S. noursei ERD44 and ERD48 was carried out. It was shown that a heptaenic compound produced by the ERD44 mutant has high antifungal activity against Candida albicans, an organism used in tests for antifungal activity. At this point it is not possible to accurately assay the activity of this compound (tentatively named S44), because it is not yet properly purified, and its exact concentration is difficult to estimate. […] This probably reflects the different states of modifications of the macrolactone ring by i.e. glycosylation at C19, hydroxylation at C10, or oxidation of the methyl group at C16. This could have been expected, since reduction of the macrolactone ring size most probably leads to the lower affinity of the modifying enzymes towards the new substrate.
Antifungal activity of the S48 mixture was tested, and found to constitute approx. 10% of nystatin activity. It seems probable that only one of the compounds in the S48 mixture produced by ERD48, which is fully decorated by the ring-modifying enzymes, is responsible for the antifungal activity detected. Thus, relative antifungal activity of this compound is impossible to assess prior to its purification Some of the […] antibiotics are known to have antibacterial, as well as antifungal activity (Ciftci, et al., J. Antibiot, v. 37: 876–884, 1984). It is thus possible that hexaenic compounds produced by the ERD48 mutant can be used for production of antibacterial agents The changes in the NysC protein leading to production of new polyene compounds in ERD44 and ERD48 mutants, along with the predicted structures of their macrolactone rings are presented in FIG. 5.
The recombinant S.noursei strain selected after this procedure was designated NPR1.1 The S. noursei NPR1.1 recombinant strain was shown by Southern blot analysis to contain the desired deletion in the DH8-coding sequence of nysC. […] The relative mobility of these compounds differed from nystatin, and no UV spectra characteristic for nystatin could be detected in the extracts. […] However, the NPR1 mutant can be potentially useful for further manipulations with the nystatin PKS.

Turning to `CC1/C=C/C=C/C=C/C=C/C=C/C=C/C=C/C(O)CC2OC(O)(CC(O)CCCC(O)CC(O)CC(O)CC(=O)OC(C)[C@H](C)C1O)CC(O)C2C` (stereo partly shown) [S44], the Activity result is given as “high”. In addition, under “result in words, unpurified compound or culture extracts”, the “antifungal activity against Candida albicans” value is reported as “high”. In addition, the “antifungal activity compared to nystatin” value (rough estimates based on UV absorbance, compound not properly purified, concentration difficult to estimate) is given as 4–5 times.

As to `C[C@@H]1[C@H](O)[C@@H](C)/C=C/C=C/CC/C=C/C=C/C=C/C=C/C(O[C@H]2O[C@H](C)[C@@H](O)[C@H](N)[C@@H]2O)CC2O[C@](O)(CC(O)C(O)CCC(O)CC(O)CC(O)CC(=O)O[C@H]1C)CC(O)C2C(=O)O` (stereo partly shown) [nystatin], the Activity result is listed as “normal”.
